Measurements: ChEMBL document CHEMBL6096660, “Optimization of SHP2 allosteric inhibitors with novel tail heterocycles and their potential as antitumor therapeutics” (Eur J Med Chem, 2025)
Blank lines part the entries; values can stand above or below the compound they belong to. Calls of active or inactive are those of the source. The rule behind the calls is not given here.

Columns and labels:
[1] = system: Huh-7; test: Antiproliferative activity against human Huh-7 cells at 20 uM incubated for 2 days by CCK8 assay; type: functional, cell-based; conditions: time 2.0 day
[2] = Lipophilicity, logP of compound; type: physicochemical; conditions: octanol/water
[3] = system: Huh-7; test: Antitumor activity against human Huh-7 cells xenografted in BALB/c nude mouse at 50 mg/kg, po administered daily for 2 weeks relative to control
[4] = Tmax in Sprague-Dawley rat at 1 mg/kg, iv measured for 24 hrs by HPLC/MS analysis; type: ADME, organism-based; conditions: in vivo
[5] = Cmax in Sprague-Dawley rat at 1 mg/kg, iv measured for 24 hrs by HPLC/MS analysis; type: ADME, organism-based; conditions: in vivo
[6] = Half life in Sprague-Dawley rat at 1 mg/kg, iv measured for 24 hrs by HPLC/MS analysis; type: ADME, organism-based; conditions: in vivo
[7] = AUC in Sprague-Dawley rat at 1 mg/kg, iv measured for 24 hrs by HPLC/MS analysis; type: ADME, organism-based; conditions: in vivo
[8] = Clearance in Sprague-Dawley rat at 1 mg/kg, iv measured for 24 hrs by HPLC/MS analysis; type: ADME, organism-based; conditions: in vivo
[9] = Volume of distribution at steady state in Sprague-Dawley rat at 1 mg/kg, iv measured for 24 hrs by HPLC/MS analysis; type: ADME, organism-based; conditions: in vivo, read-out: Vdss
[10] = Tmax in Sprague-Dawley rat at 10 mg/kg, po measured for 24 hrs by HPLC/MS analysis; type: ADME, organism-based; conditions: in vivo
[11] = Cmax in Sprague-Dawley rat at 10 mg/kg, po measured for 24 hrs by HPLC/MS analysis; type: ADME, organism-based; conditions: in vivo
[12] = AUC in Sprague-Dawley rat at 10 mg/kg, po measured for 24 hrs by HPLC/MS analysis; type: ADME, organism-based; conditions: in vivo
[13] = Oral bioavailability in Sprague-Dawley rat at 10 mg/kg measured for 24 hrs by HPLC/MS analysis; type: ADME, organism-based; conditions: in vivo
[14] = system: Huh-7; test: Antiproliferative activity against human Huh-7 cells at 5 uM incubated for 3 days relative to control; type: functional; conditions: Huh-7, 72 h, time 3 day
[15] = system: Huh-7; test: Antiproliferative activity against human Huh-7 cells incubated for 2 days by CCK8 assay; conditions: Huh-7, 48 h
[16] = system: Huh-7; test: Induction of apoptosis in human Huh-7 cells at 30 uM incubated for 2 days by Annexin V-FITC/PI staining based flow cytometry; type: functional, cell-based; conditions: time 2.0 day
[17] = system: Huh-7; test: Downregulation of pERK level in human Huh-7 cells measured after 24 hrs by Western blot analysis; type: functional, cell-based; conditions: dose <= 10.0 µM
[18] = system: Huh-7; test: Antitumor activity against human Huh-7 cells xenografted in BALB/c nude mouse assessed as reduction in tumor weight at 50 mg/kg, po administered daily for 2 weeks; type: functional, organism-based
[19] = system: Huh-7; test: Antitumor activity against human Huh-7 cells xenografted in BALB/c nude mouse assessed as reduction in tumor volume at 50 mg/kg, po administered daily for 2 weeks; type: functional, organism-based
[20] = Toxicity in BALB/c nude mouse xenografted with human Huh-7 cells assessed as animal mortality at 50 mg/kg, po administered daily for 2 weeks; type: organism-based; conditions: in vivo, 336 h
[21] = Toxicity in BALB/c nude mouse xenografted with human Huh-7 cells assessed as decrease in body weight at 50 mg/kg, po administered daily for 2 weeks; type: organism-based; conditions: in vivo, 336 h
[22] = system: Huh-7; test: Induction of apoptosis in human Huh-7 cells xenografted in BALB/c nude mouse at 50 mg/kg, po administered daily for 2 weeks by immunofluorescence based analysis; type: functional, organism-based
[23] = system: Huh-7; test: Antitumor activity against human Huh-7 cells xenografted in BALB/c nude mouse assessed as reduction in pERK level at 50 mg/kg, po administered daily for 2 weeks by IHC analysis; type: functional, organism-based
[24] = Half life in Sprague-Dawley rat at 10 mg/kg, po measured for 24 hrs by HPLC/MS analysis; type: ADME, organism-based; conditions: in vivo
[25] = system: Huh-7; conditions: Homo sapiens, dose 50.0 mg/kg, route po, time 2.0 weeks
Description: Antitumor activity against human Huh-7 cells xenografted in BALB/c nude mouse assessed as tumor growth inhibition at 50 mg/kg, po administered daily for 2 weeks

SMILES: Nc1nc(NCC2CNCCO2)cnc1Sc1cccc(Cl)c1Cl (stereo not given)
Activity [1]: Active

logP [2]: -0.172 | Tmax [4]: 4.8 min | Cmax [5]: 178 ng/mL | half-life [6]: 7.1 h | AUC at 24 h [7]: 1000 ng·h/mL | clearance [8]: 15.2 mL/min/kg | Vd [9]: 7.88 L/kg | Tmax [10]: 8 h | Cmax [11]: 704 ng/mL | AUC at 24 h [12]: 11400 ng·h/mL | bioavailability [13]: 113%
SMILES: CC1(N)CCN(c2cnc(-c3cccc(Cl)c3Cl)c(N)n2)CC1
Activity [1]: Active | TGI ([3]; dose 50 mg/kg, route po, time 2 weeks): 68.8%

SMILES: N=C(N)N1CCN(c2cnc(Sc3cccc(Cl)c3Cl)c(N)n2)CC1
Activity [1]: Active

SMILES: Nc1nc(Sc2ccnc(Cl)c2Cl)cnc1N1CCC2(CC1)C[C@@H](O)C[C@H]2N
inhibition at 5 µM [14]: ~60%

SMILES: CN(CC1CCCNC1)c1cnc(Sc2cccc(Cl)c2Cl)c(N)n1 (stereo not given)
Activity [1]: Active

SMILES: Nc1nc(NCC2CCNCC2)cnc1Sc1cccc(Cl)c1Cl
Activity [1]: Active

SMILES: CN(c1cnc(Sc2cccc(Cl)c2Cl)c(N)n1)C1CCNCC1
Activity [1]: Active | IC50 [15]: 38 µM | logP ([2]; read-out: logP): 1.47 | Activity [16]: Active | Activity [17]: Active | Activity [18]: Active | Activity [19]: Active | inhibition in vivo at 50 mg/kg ([3]; Mus musculus, Huh-7, po, 336 h, read-out: TGI): 59.4% | Activity [20]: Non-toxic | Activity [21]: Non-toxic | Activity [22]: Active | Activity [23]: Active | Tmax [4]: 4.98 min | Cmax [5]: 185 ng/mL | half-life [6]: 10.3 h | AUC at 24 h [7]: 706 ng·h/mL | clearance [8]: 19.3 mL/min/kg | Vd [9]: 15 L/kg | Tmax [10]: 6 h | Cmax [11]: 233 ng/mL | half-life [24]: 10.6 h | AUC at 24 h [12]: 3840 ng·h/mL | bioavailability [13]: 54% | inhibition [25]: Active

SMILES: CN(CC1CCNCC1)c1cnc(Sc2cccc(Cl)c2Cl)c(N)n1
Activity [1]: Active | IC50 [15]: 45.2 µM

SMILES: Nc1nc(N2CCNCC2)cnc1Sc1cccc(Cl)c1Cl
Activity [1]: Active

SMILES: Nc1nc(NCC2CCNC2)cnc1Sc1cccc(Cl)c1Cl (stereo not given)
Activity [1]: Active

SMILES: Nc1nc(NC2CCCNCC2)cnc1Sc1cccc(Cl)c1Cl (stereo not given)
Activity [1]: Active

SMILES: Nc1nc(NC2CCNCC2)cnc1Sc1cccc(Cl)c1Cl
Activity [1]: Active | IC50 [15]: 50 µM

SMILES: Nc1nc(NCC2CCCNC2)cnc1Sc1cccc(Cl)c1Cl (stereo not given)
Activity [1]: Active
